Measured values from patent publication US11098043B2, “Certain imidazopyridines as cyclic AMP response element binding (CREB) binding protein (CBP) inhibitors and uses thereof” (University of Massachusetts, priority 2017, dated 2021).

Experiments:
BRD4(1) bromodomain = molecular target: T1, BRD4(1) bromodomain (Homo sapiens, UniProt O60885); assay: AlphaScreen in vitro binding assay with BRD4; details: isolated BRD4 bromodomain, means of at least two determinations
T1 construct: final concentrations of His-BRD4(1) at 20 nM
Protocol: (§1) To determine the binding selectivity of compounds provided, AlphaScreen in vitro binding assays were performed with either CBP or BRD4.
Assays were performed with minor modifications from the manufacturer's protocol (Perkin Elmer, USA). All reagents were diluted in AlphaScreen™ buffer (50 mM HEPES, 150 mM NaCl, 0.01% v/v Tween-20, 0.1% w/v BSA, pH 7.4). After addition of Alpha beads to master solutions, all subsequent steps were performed under low light conditions. […] Plates were spun down at 1000 rpm. A 10-point 1: √{square root over (sqrt(10))} serial dilution of compounds in DMSO was prepared at 200× the final concentration. 100 nL of compound from these stock plates were added by pin transfer using a Janus Workstation (PerkinElmer). A 2× solution of streptavidin-coated donor beads with a final concentration of 10 μg/ml was added in a 10 μL volume. The plates were spun down again at 1000 rpm and sealed with foil to prevent light exposure and evaporation. The plates were then incubated at room temperature for 1 hour and read on an Envision 2104 (PerkinElmer) using the manufacturer's protocol. IC50 values were calculated using a 4-parameter logistic curve in Prism 6 (GraphPad Software, USA) after normalization to DMSO-treated negative control wells.

CBP bromodomain = molecular target: T2, CBP bromodomain (Homo sapiens, UniProt Q92793); assay: AlphaScreen in vitro binding assay with CBP; details: for IC50: AlphaScreen, isolated CBP bromodomain, means of at least two determinations; for Selectivity Value [BRD4(1) IC50 (μM)/CBP IC50 (μM)]: ratio BRD4(1) IC50 / CBP IC50
T2 construct: docked complex of Compound 21 with CBP bromodomain
T2 sequence (Q92793 1085-1192 limits assumed): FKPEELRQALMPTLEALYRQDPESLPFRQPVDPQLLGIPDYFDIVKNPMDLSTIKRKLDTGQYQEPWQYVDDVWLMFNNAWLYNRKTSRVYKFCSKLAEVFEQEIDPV
Protocol: as §1
Assays were performed with minor modifications from the manufacturer's protocol (Perkin Elmer, USA). All reagents were diluted in AlphaScreen™ buffer (50 mM HEPES, 150 mM NaCl, 0.01% v/v Tween-20, 0.1% w/v BSA, pH 7.4). After addition of Alpha beads to master solutions, all subsequent steps were performed under low light conditions. A 2× solution of components with final concentrations of His-BRD4(1) at 20 nM or His-CBP at 50 nM, Ni-coated Acceptor bead at 10 μg/ml, and biotinylated-JQ1 at 10 nM or biotinylated peptide at 100 nM was added in 10 μL to 384-well plates (AlphaPlate-384, PerkinElmer) using an EL406 liquid handler (Biotek, USA). Plates were spun down at 1000 rpm. A 10-point 1: √{square root over (sqrt(10))} serial dilution of compounds in DMSO was prepared at 200× the final concentration. 100 nL of compound from these stock plates were added by pin transfer using a Janus Workstation (PerkinElmer). A 2× solution of streptavidin-coated donor beads with a final concentration of 10 μg/ml was added in a 10 μL volume. The plates were spun down again at 1000 rpm and sealed with foil to prevent light exposure and evaporation. The plates were then incubated at room temperature for 1 hour and read on an Envision 2104 (PerkinElmer) using the manufacturer's protocol. IC50 values were calculated using a 4-parameter logistic curve in Prism 6 (GraphPad Software, USA) after normalization to DMSO-treated negative control wells.

IC50 (BRD4(1) bromodomain)	IC50 (CBP bromodomain)	Selectivity Value [BRD4(1) IC50 (μM)/CBP IC50 (μM)] (CBP bromodomain)	SMILES
10.1 µM	0.296 µM	34	COc1ccc(CCc2nc3cc(-c4c(C)noc4C)ccn3c2NC(C)C)cc1 [Compound 19, 7-(3,5-dimethylisoxazol-4-yl)-N-isopropyl-2-(4-methoxyphenethyl)imidazo[1,2-a]pyridin-3-amine]
6.59 µM	0.159 µM	41	COc1ccc(CCc2nc3cc(-c4c(C)noc4C)ccn3c2NC2CCCCC2)cc1 [Compound 18, N-cyclohexyl-7-(3,5-dimethylisoxazol-4-yl)-2-(4-methoxyphenethyl)imidazo[1,2-a]pyridin-3-amine]
